Assay results taken from US12454704B2, “Efficient gene delivery tool with a wide therapeutic margin” (priority 2019, dated 2025).

How the values were obtained:
Neuro2a cells [1] = test: Cell viability test via impedance measurement (iCELLigence); format: cell-based, murine
Procedure: The impedance (alternating current resistance) at the well bottom as real-time cell viability measure of adherent cells was determined by the iCELLigence® device. 8000 Neuro2a cells per well were seeded into two 8-well E-plates L8 and incubated for 24 h in a volume of 800 μL. For transfection toxicity studies 50 μL of reagent was added after the respective volume of culture medium was removed. Each 10 minutes the impedance/viability was measured.
The curves indicated in FIG. 2 represent the results of the following measurements: […]

Neuro2a cells [2] = format: cell-based, murine; settings: 5 μg/mL
Source text: To evaluate an enhancement of the transfection efficiency through AG1856 an optical based cytotoxicity assay after transfection with ribosome inactivating proteins (RIPs) was chosen.
As transgenes, 6-His-Agrostin RNA3 (Weise et al. 2020) and 6-His-Saporin 3 (Fabbrini et al. 1997) were cloned via BamHI and XbaI (Agrostin) and via SalI and NheI cleavage into pMC.CMV-MCS-SV40polyA (BioCat GmbH, Heidelberg, Germany) to produce minicircle with ZYCY10P3S2T (Kay et al. 2010). In addition to this, Saporin 3 and Gypsophillin S (Kokorin et al. 2019) were cloned into NTC9385R-BGHpA-Nanoplasmids and synthesized by Nature Technology Corporation (Lincoln, NB, USA) as previously described (Luke et al. 2011).
For 3 wells (96-Well-Plate), 300 ng plasmid DNA were diluted in 25 μL water and mixed with 25 μL of a solution with 2,100 ng Peptide Y (K16GACYGLPHKFCG) (GeneCust, Dudelage, Luxembourg). After an incubation period of 30 min, the nanoplexes were formed automatically. […]
The cytotoxic effect of the different constructs on the cells was measured by a CytoSMART® Omni, a camera-based system which took a photo of the bottom of each well every hour. The CytoSMART® Omni software calculated the confluence which is formed by living cells which are attached to the bottom. So, the cell growth could be monitored for 72 h. […]

Neuro2a cells [3] = test: Cell confluency as a measure of cell viability, determined optically (Cytosmart); format: cell-based, murine; settings: saponin 24 μg/mL applied 24 h after seeding
Procedure: Murine neuroblastoma cells (Neuro2a cells, ATTC CCL-131™) were cultured in Dulbecco's Modified Eagle's Medium (DMEM), containing 1 g/L D-Glucose, 10% FBS and stable glutamine, at 37° C. and 5% CO2. These cells were then incubated with different saponins to test the cytotoxic effect of the saponins.
The cell confluency as a measure of cell viability was determined optically via cell number calculating algorithms (Cytosmart). The results are depicted in FIGS. 1A to 1D.
Buffer was used in each case as negative control.

Neuro2a cells [4] = test: Cell viability test by MTT assay; format: cell-based, murine; settings: same concentration for all saponins (FIG. 3)
Source text: The determination of mitochondrial activity due to the formation of formazan out of MTT served as biochemical method to measure cell viability.

Neuro2a cells [5] = test: Sapofection: transfection efficiency of GFP-encoding PD nanoplexes by flow cytometry; format: cell-based, murine
Procedure: The PD nanoplexes comprised DNA encoding for the green fluorescent protein (GFP). Therewith, the transfection efficiency could very easily be monitored by detecting the fluorescence of the cells that have been incubated with the corresponding DNA nanoparticles. The corresponding incubation period was chosen to be 48 hours in the present case.
20 mg of positively charged poly-lysine peptides without an integrin-receptor-targeting amino sequence were purchased from Genecust. The vector of p-EGFP-N3, coding for the green fluorescing protein (GFP), was obtained and propagated with DH5α— E. coli cells (1.645 mg/mL). StemMACS™ eGFP mRNA (20 μg) and GFP encoding minicircle DNA (Gene Bank Accession: U55761) were used as further nucleic acids. In order to conduct the transfection, nanoplexes were formulated as follows: The poly-lysine peptides (P) and the p-EGFP-N3 vector (D), were diluted in water (each 50 μL) and mixed thoroughly by fast pipetting in a ratio of 4:1. The nanoplexes were allowed to form in a 30-minute incubation step. Thereafter, the nanoplex suspension was diluted with OptiMEM to a total volume of 1 mL. The commercial transfection reagent Lipofectamin®3000 was formulated as described by the manufacturer.
Neuro2a cells (15,000 cells/well) were seeded in a 24-well-plate with a well volume of 400 μL culture medium and incubated for 24 h. The transfection reagents were formulated as described above and admixed with saponin solution, if required. The culture medium was replaced with the transfection medium with a final amount of 500 ng DNA/RNA. After a 48 h incubation period, the transfection medium was removed, the cells were trypsinized and transferred in a polystyrene tube for flow cytometry (Cytoflex). For each measurement 10,000 cells were acquired. The transfection efficiency was determined by the analysis software Cyflogic (by comparison of the sample plots with the negative control in terms of fluorescence).

Neuro2a cells [6] = format: cell-based, murine; settings: saponin alone, 4 μg/mL
Source text: FIGS. 6A and 6B show cell viability tests upon AG1856-mediated delivery of GFP-minicircle-DNA- or RIP-minicircle-DNA-bearing nanoplexes.
Saporin and dianthin are cytotoxic proteins. If the transfection is successful, the transfected cells will die.
The curves depicted in FIG. 6A represent the results of the following measurements: […]

female NMRI nu/nu mice = test: Chronic toxicity (tolerability) study of nanoplasmids (NP) plus AG1856 in vivo; settings: 90 μg per mouse
Procedure: This study was performed to evaluate the tolerability of combined treatment of nanoplasmids (NP) and AG1856 in Naval Medical Research Institute (NMRI) nu/nu mice.
For the study, female NMRI nu/nu mice were used. Animals were treated with NP+AG1856 at doses of 50 and 90 μg/mouse respectively and after animal recovery in a second round at same doses.

Row | Compound | toxicity (impedance, real-time cell viability) (Neuro2a cells [1]; positive control, 4 μg/mL) | growth of the cells (normalized confluence) (Neuro2a cells [2]; positive control) | toxic effect (cell confluency as a measure of cell viability) (Neuro2a cells [3]) | toxicity (impedance, real-time cell viability) (Neuro2a cells [1]; stepwise increase of AG1856 concentration, 2 to 24 μg/mL) | toxicity-mediated drop of viability (MTT) (Neuro2a cells [4]) | transfection efficiency (Neuro2a cells [5]; GFP-plasmid nanoplexes, saponin increased from working concentration to 24 μg/mL (FIG. 5)) | transfection efficiency (Neuro2a cells [5]; PD nanoplexes (GFP DNA), saponin 2 μg/mL, 48 h incubation, versus Lipofectamin3000) | transfection efficiency (Neuro2a cells [5]; PD nanoplexes (GFP DNA), saponin 4 μg/mL or higher, 48 h incubation, versus Lipofectamin3000) | fluorescing cells (flow cytometric analysis) (Neuro2a cells [5]; transfection with GFP minicircle DNA performed with AG1856, n>3 (FIG. 6B)) | toxicity (cell viability) (Neuro2a cells [6]) | tolerance compared to other saponins (female NMRI nu/nu mice) | proliferation worse than the negative group (normalized confluence) (Neuro2a cells [2]; AG1856 only) [%]
1 | COc1ccc(C[C@H](N)C(=O)N[C@H]2[C@@H](O)[C@H](n3cnc4c(N(C)C)ncnc43)O[C@@H]2CO)cc1 [puromycin, reference compound] | toxic | inhibit the growth of the cells instantly |  |  |  |  |  |  |  |  |  | 
2 | CC(=O)OCC1OC(OC2C(O)C(OC3C(OC(=O)C45CCC(C)(C)CC4C4=CCC6C7(C)CCC(OC8OC(C(=O)O)C(O)C(OC9OCC(O)C(O)C9O)C8OC8OC(CO)C(O)C(O)C8O)C(C)(C=O)C7CCC6(C)C4(C)CC5O)OC(C)C(OC4OC(C)C(OC(C)=O)C(OC(C)=O)C4O)C3O)OC(C)C2OC2OCC(O)C(O)C2O)C(O)C(O)C1OC(C)=O (stereo not drawn) [AG1856] |  |  | No distinct toxic effect | no significant toxicity increase | could not be observed | even increased efficiency | comparable to that of the gold standard Lipofectamin | even higher than that of Lipofectamin | Four cells out of five | no toxicity | superior tolerance | 12
